Data: US20050182129A1, “Hair growth tonic” (priority 2002, published 2005)
“Also recorded” adds a separate entry of the source.

How the values were obtained:
WNT-5A mRNA [1] = assay: Decrease in WNT-5A mRNA in monkey skin organ culture (RT-PCR), Test Example 6; assay type: cell-based, Cynomolgus monkey (Macaca fascicularis); settings: 40-cycle PCR, hair follicles, 11th day of culturing, FIG. 4
Procedure: (§1) The dorsal skin of a Cynomolgus monkey (Macaca fascicularis) (male, 6 years old) was collected and divided into pieces (5 mm×8 mm) under a stereoscopic microscope. Then each skin tissue piece was cultured in William's Medium E (Invitrogen) to which no compound was added or Compound 7 or Compound 3 was added and which contained 10 μg/ml insulin (Sigma) and 10 ng/ml hydrocortisone (Kurabo).
On the 11th day of the culturing, hair follicles were separated from each skin tissue piece and total RNAs were extracted by using TRIzol reagent (Invitrogen). Using 200 ng portions of the total RNAs, 0.4 μM portions of primers specific to WNT-5A or glyceraldehyde3-phosphate dehydrogenase (GAPDH) [WNT-5A sense: AATGTCTTCCAAGTTCTTCCTAGTGGC (SEQ ID NO-8), WNT-5A antisense: GATGTCGGAATTGATACTGGCA (SEQ ID NO:9), GAPDH sense: ACCACAGTCC ATGCCATCAC (SEQ ID NO:10) and GAPDH antisense: TCCACCACCC TGTTGCTGTA (SEQ ID NO:11)] and SUPERSCRIPT One-Step RT-PCT with PLATINUM Taq (Invitrogen), RT-PCR was cared out in accordance with the protocol attached to SUPERSCRIPT One-Step RT-PCT with PLATINUM Taq. In brief, first strand synthesis was carried out at 50° C. for 30 minutes in a reaction system of 25 μl in total volume in accordance with the protocol attached to SUPERSCRIPT One-Step RT-PCT with PLATINUM Taq. […]

WNT-5A mRNA [2] = assay: Activity of decreasing WNT-5A mRNA amount (QuantiGene bDNA method), Test Example 4; assay type: cell-based; settings: Homo sapiens, Human dermal papilla cell, 24 h, human dermal papilla cells, concentration at which the mRNA amount is halved, average of 2 wells
Procedure: (§2) Human dermal papilla cells, which were purchased from Toyobo, were cultured in MEM (Invitrogen) containing 12% FBS.
(§3) The dermal papilla cells in passage 5 were sowed in a 96-well plate to give a density of 1×10^4 cells/well and cultured overnight. Then, the medium was replaced by a medium to which no compound was added or a medium containing the compounds and the culture was continued for additional 24 hours. After the completion of the culture, WNT-5A or GAPDH mRNA amount was measured by using QuantiGene High Volume Kit (Bayer Medical) by the branched DNA (bDNA) signal amplification method (Drug Metabolism and Disposition, 28(5), 608-616 (2000)). In accordance with the protocol attached to QuantiGene High Volume Kit, cells were lysed by using Lysis Mixture and the lysis solution was added to capture plate. Next, a set of probes specific to WNT-5A or GPDH was added and allowed to react at 53° C. for 20 hours. After washing the plate by using 0.1×SSC containing 0.03% lauryl sulfate, an amplification probe comprising bDNA was added and allowed to react at 46° C. for 1 hour. After washing the plate, a labeling probe labeled with alkaline phosphatase was added and allowed to react at 46° C. for 1 hour. After washing the plate, a substrate Lumi-Phos Plus was added and allowed to react at 46° C. for 30 minutes. Then, the luminescence was measured by using WALLAC 1420ARVOsx.
The WNT-5A-specific probe set was designed based on the sequence of the coding region of human WNT-5A mRNA. As capture extenders (CEs), 10 probes (SEQ ID NOs:12 to 21) were used; as label extenders (LEs), 31 probes (SEQ ID NOs:22 to 52) were employed; and as blockers, […] (SEQ ID NOs:53 to 60) were employed.
(§4) The amounts of WNT-5A and GAPDH mRNAs are expressed in relative values (%) to the control case of adding of no compound and the concentration of a compound at which the mRNA amount is halved (IC50) is calculated as an index of WNT-5A mRNA decreasing activity of the corresponding compound.

[3] = tested on: hair follicles in monkey skin organ culture; assay: Enlargement in hair bulb diameter in monkey skin organ culture, Test Example 8; assay type: cell-based, Cynomolgus monkey (Macaca fascicularis); settings: culturing for 30 days, FIGS. 6 and 7
Procedure: as §1, with “μg/ml of” for “μg/ml”, “ng/ml of” for “ng/ml”
On the 30th day of the culturing, all follicles contained in each skin tissue piece were separated and the diameter of bulbs was measured under a stereoscopic microscope.
FIGS. 6 and 7 show the results. In these figures, each numerical value means mean±S.E. of bulb diameters of all follicles contained in each skin tissue piece. To compare the control group with the test groups, Student's t-test was employed: • *:P<0.05.

GAPDH mRNA = GAPDH mRNA amount (QuantiGene bDNA method), Test Example 4; assay type: cell-based; settings: Human dermal papilla cell; human dermal papilla cells, 24 hours, concentration at which the mRNA amount is halved, average of 2 wells
Procedure: as §2, §3
As GAPDH-specific probe set, use was made of bDNA probe set for human GAPDH (XenoTech LLC, B0960).
as §4

[4] = tested on: Human dermal papilla cells; assay: Dermal papilla cell growth promoting activity (WST-1, spheroid culture), Test Example 5; assay type: cell-based; settings: for activity at 1 µM / activity at 4 µM / activity at 16 µM: Homo sapiens, Human dermal papilla cell, 72 hours, average of 3 wells, read-out: ΔO.D. 450 nm/620 nm (% of control)
Procedure: as §2
The dermal papilla cells in passage 5 were sowed in a 96-well plate for spheroid culture to give a density of 1.5×10^4 cells/well and cultured overnight. Then, the medium was replaced by a medium to which no compound was added or a medium containing the compound and the culture was continued for additional 72 hours. After the completion of the culture, cells were counted by using a Cell Counting Kit (Wako Pure Chemicals). Five hours before the completion of the culture, WST-1 reagent at 1/10 amount per medium was added to each medium and then the optical density (O.D. 450 nm/620 nm) of the medium was measured at the completion of the culture. A positive correlation was observed between the cell number and optical density within the range of 0.25 to 4×10^4 cells/well.
In this table, each numerical value means an average of 6 wells (control group) or 3 wells (test groups). To compare the control group to the test groups, Student's t-test was employed: • *:P<0.05, **:P<0.01, ***:P<0.001.

[5] = tested on: stumptailed macaque suffering from alopecia; assay: Hair growth test on stumptailed macaque, Test Example 9; assay type: in vivo, stumptailed macaque (Macaca arctoides); settings: lotion containing 0.3% compound
Procedure: To the forehead of a stumptailed macaque (Macaca arctoides) (male, 14 years old) suffering from alopecia, 1 mL of a lotion containing 0.3% Compound 7 was applied once a day 5 times per week for 6 months. Before the initiation of the application, the alopecia site in the forehead was marked by tattoo. The skin part including the tattoo was photographed before the initiation of the application and after applying for 6 months.

Row | SMILES | amplified WNT-5A cDNA fragment (WNT-5A mRNA [1]) | IC50 (WNT-5A mRNA [2]) [µM] | average bulb diameter of the follicles vs control [3] | IC50 (GAPDH mRNA) [µM] | activity at 1 µM [4] [%] | activity at 4 µM [4] [%] | activity at 16 µM [4] [%] | alopecia in the forehead ([5]; 1 mL once a day 5 times per week for 6 months, FIG. 8) | thick terminal hairs ([5]; after applying for 6 months) | vellus hairs ([5]; after applying for 6 months) | growth of dermal papilla cells ([4]; no concentration stated)
1 | C[C@@H]1C[C@@H]2O[C@H]2CC/C=C/C(=O)Cc2c(Cl)c(O)cc(O)c2C(=O)O1 [Compound 3] | remarkably decreased | 3.16 | significantly higher; also recorded: enlarges the hair bulb diameter | 58 | 92.9 ± 1.6 | 92.9 ± 9.9 | 244 ± 33.4 | – | – | – | –
2 | C[C@@H]1C[C@@H]2O[C@H]2CC/C=C/[C@H](O)Cc2c(Cl)c(O)cc(O)c2C(=O)O1 [Compound 7] | remarkably decreased | 4.07 | enlarges the hair bulb diameter; also recorded: significantly higher | > 120 | 82.6 ± 3.9 | 170 ± 10.4 | 195 ± 12.7 | clearly ameliorated | increased | decreased | excellent effect of promoting the growth
